Laboratory results as given in patent US9371294B2, “Cycloalkenyl aryl derivatives for CETP inhibitor” (CHONG KUN DANG PHARMACEUTICAL CORP., priority 2011, dated 2016).

What follows are compounds tested against T1, cholesteryl ester transfer protein (Homo sapiens, UniProt P11597) (assay: In vitro test for the ability to inhibit cholesteryl ester transfer). Conditions: [3H]-cholesteryl oleate transfer from rHDL-agarose to LDL; human plasma as CETP source; 37° C.; 16-10000 nM, duplicate.
T1 construct: As a source of cholesteryl ester transfer protein, plasma from healthy humans was used; from tissue; host or cells: plasma from healthy humans
T1 sequence (P11597 18-493): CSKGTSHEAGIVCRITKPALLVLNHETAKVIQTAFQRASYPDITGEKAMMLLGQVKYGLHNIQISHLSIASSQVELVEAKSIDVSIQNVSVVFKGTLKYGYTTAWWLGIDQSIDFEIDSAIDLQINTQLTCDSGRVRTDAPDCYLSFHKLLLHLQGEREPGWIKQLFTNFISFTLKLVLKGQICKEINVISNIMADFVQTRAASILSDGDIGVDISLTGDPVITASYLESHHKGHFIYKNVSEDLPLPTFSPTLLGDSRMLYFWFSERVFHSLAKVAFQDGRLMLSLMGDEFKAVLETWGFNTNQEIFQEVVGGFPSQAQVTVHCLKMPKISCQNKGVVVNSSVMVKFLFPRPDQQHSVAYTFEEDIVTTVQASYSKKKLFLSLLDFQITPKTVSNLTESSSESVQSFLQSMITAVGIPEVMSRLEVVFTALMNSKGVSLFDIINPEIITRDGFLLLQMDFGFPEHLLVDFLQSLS
Assay type: biochemical
Text: In Vitro Test for the Ability to Inhibit Cholesteryl Ester Transfer
1. Preparation of Cholesteryl Ester Donor
In order to prepare a cholesteryl ester donor to be used in the test, a radiolabeled recombinant HDL containing [^3H]-cholesteryl oleate (GE healthcare, TRK886, 3.5 μCi/mg of apoA-1) and apoA-1 was synthesized. Then, rHDL-agarose obtained by immobilizing the recombinant HDL with CNBr-activated Sepharose 4B resin (Amersham Biosciences, Sweden) was used in the test.
2. Cholesteryl Ester Transfer Test
As a source of cholesteryl ester transfer protein, plasma from healthy humans was used, and as cholesteryl ester receptor, LDL from healthy humans was used. Each of test compounds was added to be final concentrations of 16, 80, 400, 2000 and 10000 nM and tested in duplicate. In order to test cholesteryl ester transfer, 20 μl of plasma, 50 μl of LDL (0.25 mg/ml) and 50 μl of rHDL-agarose (0.25 mg/ml) were mixed with each other, and a solution of each test compound was added thereto and reacted thereto at 37° C. Then, the reaction solution was centrifuged at 4° C. for 3 minutes, thereby the reaction was stopped. 150 μl of the supernatant was transferred into a 96-well plate for radioactivity measurement, and the radioactivity thereof was measured with a beta-ray detector.
3. Statistical Processing
The ratio of [^3H]-cholesteryl oleate transferred from HDL to LDL was determined, and based on the determined ratio, the IC50 value of each compound was determined using GraphPad Prism 5.0.

Compared with `COc1cc(F)c(C(C)C)cc1C1=C(CN2C(=O)O[C@H](c3cc(C(F)(F)F)cc(C(F)(F)F)c3)[C@@H]2C)CN(CC(F)(F)F)CC1` [Compound 268, (4S,5R)-5-(3,5-bis(trifluoromethyl)phenyl)-3-((4-(4-fluoro-5-isopropyl-2-methoxyphenyl)-1-(2,2,2-trifluoroethyl)-1,2,5,6-tetrahydropyridin-3-yl)methyl)-4-methyloxazolidin-2-one], `COc1cc(F)c(C(C)C)cc1C1=C(CN2C(=O)O[C@H](c3cc(C(F)(F)F)cc(C(F)(F)F)c3)[C@@H]2C)CN(C(F)(F)F)CC1` [Compound 245, (4S,5R)-5-(3,5-bis(trifluoromethyl)phenyl)-3-((4-(4-fluoro-5-isopropyl-2-methoxyphenyl)-1-(trifluoromethyl)-1,2,5,6-tetrahydropyridin-3-yl)methyl)-4-methyloxazolidin-2-one] is 18-fold higher in IC50: 46 nM for the first, 810 nM for the second.

Compared with `COC(=O)Cc1cc2c(c(C3=C(CN4C(=O)O[C@H](c5cc(C(F)(F)F)cc(C(F)(F)F)c5)[C@@H]4C)CC(C)(C)CC3)c1)OCO2` [Compound 317, methyl 2-(7-(2-(((4S,5R)-5-(3,5-bis(trifluoromethyl)phenyl)-4-methyl-2-oxooxazolidin-3-yl)methyl)-4,4-dimethylcyclohex-1-enyl)benzo[d][1,3]dioxol-5-yl)acetate], `COC(=O)CCc1ccc(OC)c(C2=C(CN3C(=O)O[C@H](c4cc(C(F)(F)F)cc(C(F)(F)F)c4)[C@@H]3C)CC(C)(C)CC2)c1` [Compound 272, methyl 3-(3-(2-(((4S,5R)-5-(3,5-bis(trifluoromethyl)phenyl)-4-methyl-2-oxooxazolidin-3-yl)methyl)-4,4-dimethylcyclohex-1-enyl)-4-methoxyphenyl)propanoate] is 4.1-fold higher in IC50: 54 nM for the first, 222 nM for the second.

Compared with `COc1cc(C(F)(F)F)c(N(C)S(=O)(=O)C(F)(F)F)cc1C1=C(CN2C(=O)O[C@H](c3cc(C(F)(F)F)cc(C(F)(F)F)c3)[C@@H]2C)CC(C)(C)CC1` [Compound 209, N-(5-(2-(((4S,5R)-5-(3,5-bis(trifluoromethyl)phenyl)-4-methyl-2-oxooxazolidin-3-yl)methyl)-4,4-dimethylcyclohex-1-enyl)-4-methoxy-2-(trifluoromethyl)phenyl)trifluoro-N-methylmethanesulfonamide], `COc1cc(C(F)(F)F)c(N(C)C(=O)C(F)(F)F)cc1C1=C(CN2C(=O)O[C@H](c3cc(C(F)(F)F)cc(C(F)(F)F)c3)[C@@H]2C)CC(C)(C)CC1` [Compound 227, N-(5-(2-(((4S,5R)-5-(3,5-bis(trifluoromethyl)phenyl)-4-methyl-2-oxooxazolidin-3-yl)methyl)-4,4-dimethylcyclohex-1-enyl)-4-methoxy-2-(trifluoromethyl)phenyl)-2,2,2-trifluoro-N-methylacetamide] is 14-fold higher in IC50: 10 nM for the first, 140 nM for the second.

Going from `COc1cc(F)c(C(C)C)cc1C1=C(CN2C(=O)O[C@H](c3cc(C(F)(F)F)cc(C(F)(F)F)c3)[C@@H]2C)CCCC1` [Compound 27, (4S,5R)-5-(3,5-bis(trifluoromethyl)phenyl)-3-((2-(4-fluoro-5-isopropyl-2-methoxyphenyl)cyclohex-1-enyl)methyl)-4-methyloxazolidin-2-one] to `COc1cc(F)c(C(C)C)cc1C1=C(CN2C(=O)O[C@H](c3cc(C(F)(F)F)cc(C(F)(F)F)c3)[C@@H]2C)CCC(C)(C)C1` [Compound 109, (4S,5R)-5-(3,5-bis(trifluoromethyl)phenyl)-3-((2-(4-fluoro-5-isopropyl-2-methoxyphenyl)-4,4-dimethylcyclohex-1-enyl)methyl)-4-methyloxazolidin-2-one], the IC50 falls from 240 nM to 20 nM (12-fold).

Compared with `COc1ccc(CN2CC[C@H](F)C2)cc1C1=C(CN2C(=O)O[C@H](c3cc(C(F)(F)F)cc(C(F)(F)F)c3)[C@@H]2C)CC(C)(C)CC1` [Compound 367, (4S,5R)-5-(3,5-bis(trifluoromethyl)phenyl)-3-((2-(5-(((S)-3-fluoropyrrolidin-1-yl)methyl)-2-methoxyphenyl)-5,5-dimethylcyclohex-1-enyl)methyl)-4-methyloxazolidin-2-one], `COc1ccc(CC(C)(C)c2nnn(C)n2)cc1C1=C(CN2C(=O)O[C@H](c3cc(C(F)(F)F)cc(C(F)(F)F)c3)[C@@H]2C)CC(C)(C)CC1` [Compound 341, (4S,5R)-5-(3,5-bis(trifluoromethyl)phenyl)-3-((2-(2-methoxy-5-(2-methyl-2-(2-methyl-2H-tetrazol-5-yl)propyl)phenyl)-5,5-dimethylcyclohex-1-enyl)methyl)-4-methyloxazolidin-2-one] is 6.4-fold lower in IC50: 83 nM for the first, 13 nM for the second. The second is the more potent here.

`COc1cc(F)c(C(C)C)cc1C1=C(CN2C(=S)O[C@H](c3cc(C(F)(F)F)cc(C(F)(F)F)c3)[C@@H]2C)CC(C)(C)CC1` [Compound 17, (4S,5R)-5-(3,5-bis(trifluoromethyl)phenyl)-3-((2-(4-fluoro-5-isopropyl-2-methoxyphenyl)-5,5-dimethylcyclohex-1-enyl)methyl)-4-methyloxazolidine-2-thione] and `COc1cc(F)c(OC(C)C)cc1C1=C(CN2C(=O)O[C@H](c3cc(C(F)(F)F)cc(C(F)(F)F)c3)[C@@H]2C)CC(C)(C)CC1` [Compound 241, (4S,5R)-5-(3,5-bis(trifluoromethyl)phenyl)-3-((2-(4-fluoro-5-isopropoxy-2-methoxyphenyl)-5,5-dimethylcyclohex-1-enyl)methyl)-4-methyloxazolidin-2-one] are within 1.5-fold of each other in IC50: 510 nM for the first, 390 nM for the second.

First: COc1cc(C(F)(F)F)c(N(C)C(C)=O)cc1C1=C(CN2C(=O)O[C@H](c3cc(C(F)(F)F)cc(C(F)(F)F)c3)[C@@H]2C)CC(C)(C)CC1 [Compound 210, N-(5-(2-(((4S,5R)-5-(3,5-bis(trifluoromethyl)phenyl)-4-methyl-2-oxooxazolidin-3-yl)methyl)-4,4-dimethylcyclohex-1-enyl)-4-methoxy-2-(trifluoromethyl)phenyl)-N-methylacetamide]
Second: COc1cc(C)c(N(C)C(C)=O)cc1C1=C(CN2C(=O)O[C@H](c3cc(C(F)(F)F)cc(C(F)(F)F)c3)[C@@H]2C)CC(C)(C)CC1 [Compound 249, N-(5-(2-(((4S,5R)-5-(3,5-bis(trifluoromethyl)phenyl)-4-methyl-2-oxooxazolidin-3-yl)methyl)-4,4-dimethylcyclohex-1-enyl)-4-methoxy-2-methylphenyl)-N-methylacetamide]
The IC50 of the first is 8-fold higher: 8 nM for the first, 1 nM for the second.

`COc1ccc(C(C)O)cc1C1=C(CN2C(=O)O[C@H](c3cc(C(F)(F)F)cc(C(F)(F)F)c3)[C@@H]2C)CCCC1` (stereo partly drawn) [Compound 80, (4S,5R)-5-(3,5-bis(trifluoromethyl)phenyl)-3-((2-(5-(1-hydroxyethyl)-2-methoxyphenyl)cyclohex-1-enyl)methyl)-4-methyloxazolidin-2-one] and `COc1ccc(C(C)(C)O)cc1C1=C(CN2C(=O)O[C@H](c3cc(C(F)(F)F)cc(C(F)(F)F)c3)[C@@H]2C)CCCC1` [Compound 82, (4S,5R)-5-(3,5-bis(trifluoromethyl)phenyl)-3-((2-(5-(2-hydroxypropan-2-yl)-2-methoxyphenyl)cyclohex-1-enyl)methyl)-4-methyloxazolidin-2-one] are within 1.5-fold of each other in IC50: 100 nM for the first, 80 nM for the second.

First: COc1cc(F)c(C(=O)C(F)(F)F)cc1C1=C(CN2C(=O)O[C@H](c3cc(C(F)(F)F)cc(C(F)(F)F)c3)[C@@H]2C)CC(C)(C)CC1 [Compound 191, (4S,5R)-5-(3,5-bis(trifluoromethyl)phenyl)-3-((2-(4-fluoro-2-methoxy-5-(2,2,2-trifluoroacetyl)phenyl)-5,5-dimethylcyclohex-1-enyl)methyl)-4-methyloxazolidin-2-one]
Second: COc1cc(C)c(N(C)S(=O)(=O)C(F)(F)F)cc1C1=C(CN2C(=O)O[C@H](c3cc(C(F)(F)F)cc(C(F)(F)F)c3)[C@@H]2C)CC(C)(C)CC1 [Compound 251, N-(5-(2-(((4S,5R)-5-(3,5-bis(trifluoromethyl)phenyl)-4-methyl-2-oxooxazolidin-3-yl)methyl)-4,4-dimethylcyclohex-1-enyl)-4-methoxy-2-methylphenyl)trifluoro-N-methylmethanesulfonamide]
The IC50 of the first is 7.7-fold lower: 90 nM for the first, 690 nM for the second.

`COc1ccc(NC(C)=O)cc1C1=C(CN2C(=O)O[C@H](c3cc(C(F)(F)F)cc(C(F)(F)F)c3)[C@@H]2C)CC(C(F)(F)F)CC1` (stereo partly drawn) [Compound 196, N-(3-(2-(((4S,5R)-5-(3,5-bis(trifluoromethyl)phenyl)-4-methyl-2-oxooxazolidin-3-yl)methyl)-4-(trifluoromethyl)cyclohex-1-enyl)-4-methoxyphenyl)acetamide] showed an IC50 of 490 nM.
